Structures can show the parent of a compound that is named as a salt.
Target: T1, human CCR5 (Homo sapiens, UniProt P51681)
T1 construct: expressed in transfected cells; host or cells: CHO-dhfr(-)
Experiment: Inhibition test on the binding of RANTES to CCR5 (RANTES-induced transient increase of Ca ion) in CCR5/CHO cells
Format: cell-based
Conditions: human CCR5 stably over-expressing CHO cell; recombinant human RANTES 10 nM; intracellular Ca2+ transient increase (Fura-2AM)
Protocol: (1) Isolation of Human CCR5 Gene Human placental cDNA was prepared using Marathon cDNA amplification kit (Clontech). PCR primers hCCR5Xbal-F1: Using the human placental cDNA as the template and using Ex Taq (Takara), PCR reaction (2 minutes at 95° C. {cube root}(30 seconds at 95° C., 45 seconds at 60° C., 1 minute at 72° C.)×35 times) was carried out. The thus amplified PCR product was subjected to a 1% agarose gel electrophoresis, purified using QIAquick Gel Extraction Kit (QUIAGEN) and then digested with a restriction enzyme XbaI. The digested fragments were ligated to an expression vector pEF-BOS-bsr using DNA Ligation Kit Ver. 2 (Takara) and transformed into Escherichia coli DH5α. By preparing the resulting plasmid pEF-BOS-bsr/hCCR5, its DNA sequence was verified. CHO-dhfr(−) was cultured using Ham's F-12 (containing fetal bovine serum (10%), penicillin (50 U/ml) and streptomycin ([…])). […] Transient increase in the intracellular Ca^2+ concentration induced by the human RANTES was measured using a Ca^2+ detector for 96 well use (Hamamatsu Photonics), and inhibition ratio (%) of the test compound was calculated by the following calculation formula. • Inhibition ratio=(Ec−Ea)/Ec×100 • Ec: measured value of Ca^2+ transient increase by RANTES • Ea: measured value of Ca^2+ transient increase by RANTES when a test compound was added.

T1 sequence (P51681 whole entry): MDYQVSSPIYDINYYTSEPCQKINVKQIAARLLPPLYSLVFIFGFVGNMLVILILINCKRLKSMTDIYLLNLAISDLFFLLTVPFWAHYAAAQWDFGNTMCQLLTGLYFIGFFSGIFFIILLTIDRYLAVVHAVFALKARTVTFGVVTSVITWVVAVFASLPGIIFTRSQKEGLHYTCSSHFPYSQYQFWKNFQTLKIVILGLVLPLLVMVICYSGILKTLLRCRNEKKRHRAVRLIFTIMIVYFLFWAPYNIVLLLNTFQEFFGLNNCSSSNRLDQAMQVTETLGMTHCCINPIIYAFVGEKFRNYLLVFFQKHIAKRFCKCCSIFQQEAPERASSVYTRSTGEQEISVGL

## CCCCN1C(=O)[C@H](CC2CCCCC2)NC(=O)C12CCN(Cc1ccccc1)CC2C (stereo partly drawn) [Example 1, (3S)-9-benzyl-1-butyl-3-(cyclohexylmethyl)-7-methyl-1,4,9-triazaspiro[5.5]undecane-2,5-dione hydrochloride]
  IC50: 760 nM
